Measured values: patent US20200009135A1, “THERAPEUTIC APPLICATIONS OF MALT1 INHIBITORS” (MEDIVIR AB, priority 2017, published 2020)

Assays:
Full-length MALT1 enzyme = target: T1, Full-length MALT1 enzyme (Homo sapiens, UniProt Q9UDY8); experiment: MALT1 biochemical assay; settings: 2 nM enzyme, 50 μM Ac-Leu-Arg-Ser-Arg-AMC substrate
T1 construct: Full-length MALT1 enzyme at 2 nM was assayed in 50 mM HEPES
T1 sequence (Q9UDY8 1-824): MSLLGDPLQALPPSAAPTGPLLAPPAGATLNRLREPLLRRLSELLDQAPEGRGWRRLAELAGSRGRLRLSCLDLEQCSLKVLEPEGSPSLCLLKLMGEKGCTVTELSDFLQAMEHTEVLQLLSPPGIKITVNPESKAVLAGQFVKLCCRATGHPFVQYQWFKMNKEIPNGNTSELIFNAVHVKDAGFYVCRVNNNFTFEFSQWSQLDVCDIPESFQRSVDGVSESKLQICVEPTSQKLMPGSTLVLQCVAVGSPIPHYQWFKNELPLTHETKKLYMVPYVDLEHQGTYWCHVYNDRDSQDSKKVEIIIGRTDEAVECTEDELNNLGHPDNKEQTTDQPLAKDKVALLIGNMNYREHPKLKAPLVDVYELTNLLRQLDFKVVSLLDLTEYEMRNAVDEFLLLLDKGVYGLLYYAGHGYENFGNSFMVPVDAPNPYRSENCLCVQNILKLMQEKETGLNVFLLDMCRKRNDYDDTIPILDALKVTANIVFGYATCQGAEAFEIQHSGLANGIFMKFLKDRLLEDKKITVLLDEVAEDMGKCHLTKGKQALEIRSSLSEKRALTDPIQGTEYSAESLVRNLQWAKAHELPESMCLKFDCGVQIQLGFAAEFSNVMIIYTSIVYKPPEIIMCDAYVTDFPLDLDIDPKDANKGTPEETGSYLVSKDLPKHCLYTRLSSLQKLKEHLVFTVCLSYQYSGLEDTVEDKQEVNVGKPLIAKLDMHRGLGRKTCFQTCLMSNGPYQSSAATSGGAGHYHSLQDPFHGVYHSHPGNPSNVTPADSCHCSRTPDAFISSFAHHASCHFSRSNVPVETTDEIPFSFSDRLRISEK
Method: Full-length MALT1 enzyme at 2 nM was assayed in 50 mM HEPES, 100 mM NaCl, 0.9 M NaCitrate, 1 mM EDTA, pH 7.5, with 50 μM Ac-Leu-Arg-Ser-Arg-AMC as substrate. Compound was added in an 11-point concentration series from 100 μM to 1 nM in half-log dilution.
Compounds were distributed in 384 well plates by Echo550, and the assay was run with fluorescence readings at 460 nm, every 2 minutes for 60 minutes.

MALT1 = target: T2, MALT1 (Homo sapiens, UniProt Q9UDY8); experiment: HOIL1 cleavage assay (in-cell MALT1 protease activity, Jurkat E6-1); type: cell-based; settings: Jurkat E6-1, PMA/Ionomycin-induced cleavage of HOIL1, 60 minutes
T2 construct: endogenous in cells; host or cells: Jurkat clone E6-1 (ATCC)
T2 sequence (Q9UDY8 1-824): T1 sequence (Q9UDY8 1-824)
Method: In-cell MALT1 protease activity, was measured as inhibition of PMA/lonomycin-induced cleavage of HOIL1. Day 1 0.75×10^6 cells/well were seeded in a 48 well plate. Day 2 cells were stimulated by PMA/lonomycin (1:500 dilution) with addition of vehicle or compound in a 5-point concentration series, 1:3 dilution.

[1] = system: IL-2 expression in Jurkat (E6-1) cells; experiment: IL-2 expression assay (down-stream MALT1 activity, Jurkat E6-1); type: cell-based; settings: Homo sapiens; Jurkat E6-1, PMA/Ionomycin stimulation, 24 hours
Method: Down-stream MALT1 activity was measured by PMA/lonomycin-induced expression of IL-2 in Jurkat (E6-1) cells. Compounds were distributed in a 96 well plate, 8-point concentration series, 1:3 dilution. Jurkat clone E6-1, 4×10^4 cells/well, were added, and stimulated by PMA/lonomycin (1:500 dilution) for 24 hours at 37° C. Measurement was performed using a MesoScale Sector S600 with the Human IL-2 Tissue Culture kit according to the manufacturers recommendation.

Compound | IC50 (Full-length MALT1 enzyme) [nM] | IC50 (MALT1) [µM] | IC50 [1] [µM]
CO[C@@H](C)c1c(NC(=O)Nc2cnc(-n3cc(CN)cn3)c(Cl)c2)cnc2cc(Cl)nn12 [Example 1, (S)-1-(6-(4-(aminomethyl)-1H-pyrazol-1-yl)-5-chloropyridin-3-yl)-3-(2-chloro-7-(1-methoxyethyl)pyrazolo[1,5-a]pyrimidin-6-yl)urea] | 37.5 | 0.04 | 0.03
CO[C@@H](C)c1c(NC(=O)Nc2ccnc(C(F)(F)F)c2)cnc2cc(Cl)nn12 [Example 3, (S)-1-(2-Chloro-7-(1-methoxyethyl)pyrazolo[1,5-a]pyrimidin-6-yl)-3-(2-(trifluoromethyl)pyridin-4-yl)urea] |  |  | 0.02
